The text below walks through data of ChEMBL document CHEMBL3994669, “Curcumin May (Not) Defy Science” (2017).

Assay type in all cases: functional
For assay [1], the system named is Homo sapiens. The experiment in a line: Antirheumatoid arthritic activity in patient assessed as disease activity score at 50 mg, po bid for 8 weeks (reference value: 6.72 +/- 0.87).
Assay [2] deals with Homo sapiens. The experiment in a line: Antirheumatoid arthritic activity in patient assessed as visual analogue scale at 50 mg, po bid for 8 weeks (reference value: 78.25 +/- 11.25).
The subject of assay [3] is Homo sapiens. The experiment in a line: Anti-inflammatory activity in COPD patient assessed as change in uric acid level at 90 mg, po bid for 24 weeks (2.3%).
For assay [4], the system named is Homo sapiens. The experiment in a line: Anti-inflammatory activity in COPD patient assessed as change in gammaGTP level at 90 mg, po bid for 24 weeks (-1.2%).
In assay [5] the test system is Homo sapiens. The experiment in a line: Anti-inflammatory activity in COPD patient assessed as change in HbA1c level at 90 mg, po bid for 24 weeks relative to placebo treated control.
Assay [6] relates to Homo sapiens. The experiment in a line: Antirheumatoid arthritic activity in patient assessed as visual analogue scale at 500 mg, po bid for 8 weeks (reference value: 68.57 +/- 17.14).
Assay [7] relates to Homo sapiens. Nature of the assay: Antirheumatoid arthritic activity in patient assessed as disease activity score at 500 mg, po bid for 8 weeks (reference value: 6.4 +/- 0.73).
The subject of assay [8] is Homo sapiens. The experiment in a line: Anti-inflammatory activity in COPD patient assessed as change in LDL-C level at 90 mg, po bid for 24 weeks (11.4%).
Assay [9] relates to Homo sapiens. Nature of the assay: Antirheumatoid arthritic activity in patient assessed as visual analogue scale at 500 mg, po bid for 8 weeks in presence of diclofenac sodium (reference value: 77.25 +/- 9.65).
Assay [10] has as its system Homo sapiens. The experiment in a line: Anti-inflammatory activity in COPD patient assessed as change in forced expiratory volume in 1 second at 90 mg, po bid for 24 weeks (-3.6%).
Assay [11] relates to Homo sapiens. The experiment in a line: Anti-inflammatory activity in COPD patient assessed as change in SAA-LDL level at 90 mg, po bid for 24 weeks (10.8%).
Assay [12] relates to Homo sapiens. Nature of the assay: Anti-inflammatory activity in COPD patient assessed as change in creatinine level at 90 mg, po bid for 24 weeks (1.4%).
In assay [13] the test system is Homo sapiens. The experiment in a line: Anti-inflammatory activity in COPD patient assessed as change in DBP at 90 mg, po bid for 24 weeks (reference value: 2.9%).
Assay [14] relates to Homo sapiens. Nature of the assay: Anti-inflammatory activity in COPD patient assessed as change in blood sugar level at 90 mg, po bid for 24 weeks (14.5%).
Assay [15] has as its system Homo sapiens. The experiment in a line: Anti-inflammatory activity in COPD patient assessed as change in triglyceride level at 90 mg, po bid for 24 weeks (14.5%).
For assay [16], the system named is Homo sapiens. Nature of the assay: Anti-inflammatory activity in COPD patient assessed as change in HDL-C level at 90 mg, po bid for 24 weeks (2%).
Assay [17] has as its system Homo sapiens. Nature of the assay: Anti-inflammatory activity in COPD patient assessed as change in BMI at 90 mg, po bid for 24 weeks (reference value: -0.7%).
The test system of assay [18] is Homo sapiens. Nature of the assay: Anti-inflammatory activity in COPD patient assessed as change in SBP at 90 mg, po bid for 24 weeks (reference value: 1.4%).
Assay [19] has as its system Homo sapiens. Nature of the assay: Antirheumatoid arthritic activity in patient assessed as disease activity score at 500 mg, po bid for 8 weeks in presence of diclofenac sodium (reference value: 6.44 +/- 0.51).
Assay [20] has as its system Homo sapiens. Nature of the assay: Anti-inflammatory activity in COPD patient assessed as change in C-reactive protein level at 90 mg, po bid for 24 weeks (11.1%).
For assay [21], the system named is Homo sapiens. Nature of the assay: Anti-inflammatory activity in COPD patient assessed as change in AT-LDL level at 90 mg, po bid for 24 weeks (14.8%).

Regarding `O=C([O-])Cc1ccccc1Nc1c(Cl)cccc1Cl.[Na+]` [DICLOFENAC SODIUM], the Activity in assay [1] came out at 3.89; in [2], 39.17.
As to `COc1cc(/C=C/C(=O)CC(=O)/C=C/c2ccc(O)c(OC)c2)ccc1O` [CURCUMIN], the Activity is on record as 2.4% in assay [3]; -5.7% in assay [4]; 0.4% in [5]; 27.5 in [6]; 3.55 in [7]; 4.6% in assay [8]. The Activity in [9] is on record as 34.29; in assay [10] it was -1.9%; in assay [11], -2%; in assay [12], 2.9%; in [13], 3.5%; in assay [14], 5.8%. The Activity is 9.2% in assay [15]; -2.8% in assay [16]; 0.9% in assay [17]; -1.3% in assay [18]; 3.58 in assay [19]; -12.5% in assay [20]. Moreover, the Activity in assay [21] is listed as -1.6%.
